Side chains are listed from the residue outwards. Peptide text beside a SMILES is read from it. * marks the point of attachment. Nicotinoyl = O=C(c1cccnc1)*; Cbz = O=C(OCc1ccccc1)*
Legend:
[1] = molecular target: T1, Type-1 angiotensin II receptor (Homo sapiens, UniProt P30556)
T1 sequence (P30556 whole entry): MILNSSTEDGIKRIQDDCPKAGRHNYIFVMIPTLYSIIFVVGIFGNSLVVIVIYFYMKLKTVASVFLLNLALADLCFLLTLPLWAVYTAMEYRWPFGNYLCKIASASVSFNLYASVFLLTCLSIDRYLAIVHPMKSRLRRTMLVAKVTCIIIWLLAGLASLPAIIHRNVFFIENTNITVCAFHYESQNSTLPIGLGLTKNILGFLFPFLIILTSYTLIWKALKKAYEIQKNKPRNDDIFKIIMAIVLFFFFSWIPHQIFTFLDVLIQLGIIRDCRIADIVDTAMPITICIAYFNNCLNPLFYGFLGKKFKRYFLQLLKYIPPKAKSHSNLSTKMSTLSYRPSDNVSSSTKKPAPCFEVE

[2] = molecular target: T2, Type-1 angiotensin II receptor A (Rattus norvegicus, UniProt P25095)
T2 sequence (P25095 whole entry): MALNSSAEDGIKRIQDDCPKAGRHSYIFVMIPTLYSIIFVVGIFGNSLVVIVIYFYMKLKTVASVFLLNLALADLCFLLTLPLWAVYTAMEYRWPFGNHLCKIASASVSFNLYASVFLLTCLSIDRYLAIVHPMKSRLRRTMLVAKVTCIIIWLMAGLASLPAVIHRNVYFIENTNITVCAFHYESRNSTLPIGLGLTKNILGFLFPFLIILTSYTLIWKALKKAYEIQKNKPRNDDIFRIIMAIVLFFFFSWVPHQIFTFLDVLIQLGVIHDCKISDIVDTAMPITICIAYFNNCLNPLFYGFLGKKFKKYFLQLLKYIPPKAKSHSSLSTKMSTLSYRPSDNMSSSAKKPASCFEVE

[3] = molecular target: T3, Type-1 angiotensin II receptor B (Rattus norvegicus, UniProt P29089)
T3 sequence (P29089 whole entry): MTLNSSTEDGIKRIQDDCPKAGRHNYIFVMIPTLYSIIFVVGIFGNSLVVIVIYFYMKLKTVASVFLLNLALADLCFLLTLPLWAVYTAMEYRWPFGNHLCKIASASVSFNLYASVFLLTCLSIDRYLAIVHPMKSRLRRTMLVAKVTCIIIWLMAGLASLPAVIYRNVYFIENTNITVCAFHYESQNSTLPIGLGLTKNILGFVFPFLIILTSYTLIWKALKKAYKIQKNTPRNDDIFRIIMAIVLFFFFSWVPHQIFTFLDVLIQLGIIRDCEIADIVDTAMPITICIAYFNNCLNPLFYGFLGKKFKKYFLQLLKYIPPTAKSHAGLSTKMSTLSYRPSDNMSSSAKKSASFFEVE

[4] = molecular target: T4, Type-2 angiotensin II receptor (Rattus norvegicus, UniProt P35351)
T4 sequence (P35351 whole entry): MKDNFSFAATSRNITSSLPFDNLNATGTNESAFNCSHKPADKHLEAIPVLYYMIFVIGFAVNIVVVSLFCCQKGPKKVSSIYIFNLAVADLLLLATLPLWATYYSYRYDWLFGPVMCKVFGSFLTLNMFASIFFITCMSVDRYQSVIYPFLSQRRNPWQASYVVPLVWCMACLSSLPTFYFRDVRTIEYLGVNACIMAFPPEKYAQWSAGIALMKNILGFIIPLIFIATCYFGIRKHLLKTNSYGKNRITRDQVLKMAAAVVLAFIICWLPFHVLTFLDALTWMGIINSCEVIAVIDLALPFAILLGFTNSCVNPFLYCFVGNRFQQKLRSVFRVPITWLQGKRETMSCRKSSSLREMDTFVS

Compound	Ki [1] [nM]	Ki [2] [nM]	Ki [3] [nM]	Ki [4] [nM]
CCOc1nc2cccc(C(=O)O)c2n1Cc1ccc(-c2ccccc2-c2nnn[nH]2)cc1	0.17	0.12	0.12	> 10000
CCc1nn(Cc2ccc(-c3ccccc3-c3nnn[nH]3)cc2)c(=NC(=O)C2=C(C(=O)O)CCC2)s1 [KRH-594]	1.24	1.02	0.67	9360
CC[C@H](C)[C@H](NC(=O)[C@@H]1CCCN1C(=O)[C@H](Cc1c[nH]cn1)NC(=O)[C@H](CCCCNC(=O)[C@H](CCCN=C(N)N)NC(=O)OCc1ccccc1)NC(=O)[C@H](Cc1ccc(O)cc1)NC(=O)c1cccnc1)C(=O)O [NSC_123794] (Nicotinoyl-YK([Arg-Cbz])HPI-OH)				0.37
CCCCc1nc(Cl)c(C(=O)O)n1Cc1ccc(-c2ccccc2-c2nn[nH]n2)cc1 [2-Butyl-5-chloro-3-[2'-(1H-tetrazol-5-yl)-biphenyl-4-ylmethyl]-3H-imidazole-4-carboxylic acid]		0.57		> 10000
